In paper PMC8703412 (Pharmaceuticals, 2021):
In brackets after ≈: the same amount, converted by molar mass. Read-outs that look alike come from different tables or passages of the source.

What was measured:
[1] = test system: Mycobacterium kansasii 6509/96 (clinical isolate); assay: MIC micromethod in Šula's medium, M. kansasii; assay type: cell-based
[2] = test system: Mycobacterium tuberculosis strain 331/88 (i.e., H37Rv); assay: MIC micromethod in Šula's medium, drug-susceptible Mtb.; assay type: cell-based
[3] = test system: Mtb. H37Ra pVV16-katGsmeg; assay: microbe, parasite or virus in culture; assay type: cell-based; details: Mycobacterium tuberculosis, 672 h, read-out: MIC H37Ra pVV16-katGsmeg
[4] = test system: Mycobacterium avium 330/88; assay: MIC micromethod in Šula's medium, M. avium; assay type: cell-based
[5] = test system: Mtb. H37Ra pMV261/pVV16; assay: microbe, parasite or virus in culture; assay type: cell-based, Mycobacterium tuberculosis; details: for MIC: Mycobacterium tuberculosis, H37RA, 672 h, read-out: MIC H37Ra pMV261/pVV16
[6] = Cytotoxicity, CellTiter 96 (MTS) assay; details: human, Cytotoxicity for HepG2 cells, IC50, 24 h incubation, 1–1000 µM
[7] = test system: Mtb. H37Ra pMV261-inhA; assay: microbe, parasite or virus in culture; assay type: cell-based, Mycobacterium tuberculosis; details: for MIC: Mycobacterium tuberculosis, H37RA, 672 h, read-out: MIC H37Ra pMV261-inhA
[8] = Solubility in the cytotoxicity concentration range; assay type: physicochemical; details: cytotoxicity assay medium, DMSO max 1% v/v
Method: The cells were seeded in a density 15,000 cells per well in a 96-well plate. The next day the cells were treated with each of the tested substances at a broad range of concentrations (1–1000 µM) in triplicates; the compounds were dissolved in DMSO (maximal incubation concentration of DMSO was 1% v/v). The controls representing 100% cell viability, 0% cell viability (the cells treated with 10% DMSO), no cell control and vehiculum controls were incubated in parallel, also as triplicates. After 24 h of incubation in a humidified atmosphere containing 5% CO2 at 37 °C, the reagent from the kit CellTiter 96 AQueous One Solution Cell Proliferation Assay (CellTiter 96; PROMEGA, Fitchburg, WI, USA) was added. After 2 h incubation at 37 °C, absorbance of samples was recorded at 490 nm (TECAN, Infinita M200, Grödig, Austria). A standard toxicological parameter IC50 was calculated by nonlinear regression from a semilogarithmic plot of incubation concentration versus percentage of absorbance relative to untreated controls using GraphPad Prism 8 software (GraphPad Software, Inc., La Jolla, CA, USA).
Cytotoxicity was quantified using the standard parameter IC50 (Figure 3).

[9] = test system: HepG2 cells; assay: Cytotoxicity, CellTiter 96 (MTS) assay; details: read-out: Cytotoxicity for HepG2 cells, IC50; 24 h incubation, 1–1000 µM
[10] = test system: Mycobacterium avium 330/88; set-up: method as in PMID 34198149; details: cited from earlier work
[11] = test system: Mycobacterium kansasii 6509/96 (clinical isolate); set-up: method as in PMID 34198149; details: cited from earlier work
[12] = test system: Mycobacterium tuberculosis strain 331/88 (i.e., H37Rv); set-up: method as in PMID 34198149; details: cited from earlier work
[13] = Mycobacterium kansasii, 168 h, 7 d incubation, Table 1, read-out: MIC M. kansasii 6509/96 7 d
[14] = Mycobacterium kansasii, 336 h, 14 d incubation, Table 1, read-out: MIC M. kansasii 6509/96 14 d
[15] = Mycobacterium kansasii, 504 h, 21 d incubation, Table 1, read-out: MIC M. kansasii 6509/96 21 d
[16] = Mycobacterium kansasii, 504 h, text summary over 7, 14 and 21 d, read-out: MIC for M. kansasii 6509/96
[17] = Mycobacterium tuberculosis, H37RV, 336 h, 14 d incubation, esters, Table 1, read-out: MIC Mtb. 331/88 14 d
[18] = Mycobacterium tuberculosis, H37RV, 504 h, 21 d incubation, esters, Table 1, read-out: MIC Mtb. 331/88 21 d
[19] = Mycobacterium tuberculosis, H37RV, Table 4, read-out: MIC H37Rv
[20] = Mycobacterium avium, 330/88, 336 h, 14 d incubation, Table 1, read-out: MIC M. avium 330/88 14 d
[21] = Mycobacterium avium, 330/88, 504 h, 21 d incubation, Table 1, read-out: MIC M. avium 330/88 21 d
[22] = Mycobacterium avium, 330/88, 504 h, 14 and 21 d, read-out: MIC for M. avium

Molecule	MIC [1, 13] [µM]	MIC [1, 14] [µM]	MIC [1, 15] [µM]	MIC [1, 16] [µM]	MIC [2, 17] [µM]	MIC [2, 18] [µM]	MIC [2, 19] [µM]	MIC [3] [µM]	MIC [4, 20] [µM]	MIC [4, 21] [µM]	MIC H37Ra pMV261/pVV16 [5]	MIC [5] [µM]	IC50 at 24 h [6] [µM]	MIC H37Ra pMV261-inhA [7] [µM]	MIC [7] [µM]	melting point [°C]	IC50 [9] [µM]	also measured
C/C(=N\NC(=O)c1ccncc1)C(=O)Oc1cc(C(C)C)ccc1C [3l, 2-Isopropyl-5-methyphenyl (E)-2-(2-isonicotinoylhydrazineylidene)propanoate]	0.25 (≈ 0.0848 µg/mL)	0.25 (≈ 0.0848 µg/mL)	0.25 (≈ 0.0848 µg/mL)	≤ 0.5	0.25 (≈ 0.0848 µg/mL)	0.25 (≈ 0.0848 µg/mL)	0.25 (≈ 0.0848 µg/mL)	0.05 to 0.125 (≈ 0.017 to 0.0424 µg/mL)	125 (≈ 42.4 µg/mL)	250 (≈ 84.8 µg/mL)	0.25	0.25 (≈ 0.0848 µg/mL)	> 1000	5	5 (≈ 1.7 µg/mL)			
C/C(=N\NC(=O)c1ccncc1)C(=O)Oc1cc(Cl)ccc1Oc1ccc(Cl)cc1Cl [3o, 5-Chloro-2-(2,4-dichlorophenoxy)phenyl (E)-2-(2-isonicotinoylhydrazineylidene)propanoate]	4 (≈ 1.91 µg/mL)	4 (≈ 1.91 µg/mL)	8 (≈ 3.83 µg/mL)		≤ 0.125	≤ 0.125	0.125 (≈ 0.0598 µg/mL)	0.125 (≈ 0.0598 µg/mL)	64 (≈ 30.6 µg/mL)	64 (≈ 30.6 µg/mL)	0.325	0.325 (≈ 0.156 µg/mL)	211	6	6.25 (≈ 2.99 µg/mL)	153 to 155		solubility in the concentration range of 1–1000 μM [8]: without any solubility problem; MIC [4, 22]: 32 to 64 µM (≈ 15.3 to 30.6 µg/mL)
C/C(=N\NC(=O)c1ccncc1)C(=O)Oc1cccc2ccccc12 [3i, Naphthalen-1-yl (E)-2-(2-isonicotinoylhydrazineylidene)propanoate]	0.25 (≈ 0.0833 µg/mL)	0.25 (≈ 0.0833 µg/mL)	0.25 (≈ 0.0833 µg/mL)	≤ 0.5	0.25 (≈ 0.0833 µg/mL)	0.25 (≈ 0.0833 µg/mL)			125 (≈ 41.7 µg/mL)	250 (≈ 83.3 µg/mL)			999			181.1 to 182.5	> 500	
C/C(=N\NC(=O)c1ccncc1)C(=O)Oc1ccc(Oc2ccccc2)cc1 [3e, 4-Phenoxyphenyl (E)-2-(2-isonicotinoylhydrazineylidene)propanoate]	2 (≈ 0.751 µg/mL)	4 (≈ 1.5 µg/mL)	4 (≈ 1.5 µg/mL)		≤ 0.125	0.5 (≈ 0.188 µg/mL)			250 (≈ 93.8 µg/mL)	500 (≈ 188 µg/mL)			551			152.4 to 155	> 500	
5-Isopropyl-2-methylphenyl (E)-2-(2-isonicotinoylhydrazineylidene)propanoate [3k]																	> 500	MIC ([1]; 7 d incubation, Table 1, read-out: MIC M. kansasii 6509/96 7 d): 8 µM; MIC ([1]; 14 d incubation, Table 1, read-out: MIC M. kansasii 6509/96 14 d): 16 µM; MIC ([1]; 21 d incubation, Table 1, read-out: MIC M. kansasii 6509/96 21 d): 16 µM; fold lower activity than isomer 3l ([1]; M. kansasii 6509/96): 64 ×; MIC ([2]; 14 d incubation, esters, Table 1, read-out: MIC Mtb. 331/88 14 d): 0.25 µM; MIC ([2]; 21 d incubation, esters, Table 1, read-out: MIC Mtb. 331/88 21 d): 0.25 µM; MIC ([4]; 14 d incubation, Table 1, read-out: MIC M. avium 330/88 14 d): 500 µM; MIC ([4]; 21 d incubation, Table 1, read-out: MIC M. avium 330/88 21 d): 1000 µM
C/C(=N\NC(=O)c1ccncc1)C(=O)Oc1ccc2ccccc2c1 [3j, Naphthalen-2-yl (E)-2-(2-isonicotinoylhydrazineylidene)propanoate]	0.25 (≈ 0.0833 µg/mL)	0.25 (≈ 0.0833 µg/mL)	0.5 (≈ 0.167 µg/mL)	≤ 0.5	0.25 (≈ 0.0833 µg/mL)	0.25 (≈ 0.0833 µg/mL)			125 (≈ 41.7 µg/mL)	250 (≈ 83.3 µg/mL)			682			116 to 117.2	> 500	
C/C(=N\NC(=O)c1ccncc1)C(=O)O [compound 2, (E)-2-(2-isonicotinoylhydrazineylidene)propanoic acid]																		MIC M. avium 330/88 14 d ([10]; 14 d incubation): 500 µM (≈ 104 µg/mL); MIC M. avium 330/88 21 d ([10]; 21 d incubation): >1000 µM; MIC M. kansasii 6509/96 7 d ([11]; 7 d incubation): 8 µM (≈ 1.66 µg/mL); MIC M. kansasii 6509/96 14 d ([11]; 14 d incubation): 16 µM (≈ 3.32 µg/mL); MIC M. kansasii 6509/96 21 d ([11]; 21 d incubation): 16 µM (≈ 3.32 µg/mL); MIC Mtb. 331/88 14 d ([12]; 14 d incubation): 1 µM (≈ 0.207 µg/mL); MIC Mtb. 331/88 21 d ([12]; 21 d incubation): 1 µM (≈ 0.207 µg/mL)
C/C(=N\NC(=O)c1ccncc1)C(=O)Oc1cccc2cccnc12 [3m, Quinolin-8-yl (E)-2-(2-isonicotinoylhydrazineylidene)propanoate]	2 (≈ 0.669 µg/mL)	4 (≈ 1.34 µg/mL)	4 (≈ 1.34 µg/mL)		0.25 (≈ 0.0836 µg/mL)	0.5 (≈ 0.167 µg/mL)	0.25 (≈ 0.0836 µg/mL)	0.125 (≈ 0.0418 µg/mL)	32 (≈ 10.7 µg/mL)	64 (≈ 21.4 µg/mL)	0.25	0.25 (≈ 0.0836 µg/mL)	247	5	5 (≈ 1.67 µg/mL)	159.3 to 160.4		MIC [4, 22]: 32 to 64 µM (≈ 10.7 to 21.4 µg/mL)
C/C(=N\NC(=O)c1ccncc1)C(=O)OCCn1c([N+](=O)[O-])cnc1C [3q, 2-(2-Methyl-5-nitro-1H-imidazol-1-yl)ethyl (E)-2-(2 isonicotinoylhydrazineylidene)propanoate]	2 (≈ 0.721 µg/mL)	4 (≈ 1.44 µg/mL)	4 (≈ 1.44 µg/mL)		0.25 (≈ 0.0901 µg/mL)	0.5 (≈ 0.18 µg/mL)			500 (≈ 180 µg/mL)	1000 (≈ 360 µg/mL)			> 1000			123 to 125.7		
